According to patent US20060094771A1, “Carvedilol pharmasolve solvate” (priority 2002, published 2006):

Experiment: Solubility of carvedilol in Pharmasolve
Type: physicochemical
Details: solvent Pharmasolve (N-methyl-2-pyrrolidone)

- solubility of carvedilol in Pharmasolve: 1.6 gram of drug per gram of pharmasolve
SMILES: COc1ccccc1OCCNCC(O)COc1cccc2[nH]c3ccccc3c12 (racemic) [carvedilol]
